Measurements taken from ChEMBL document CHEMBL5365467 (J Med Chem, 2023).
Calls of active or inactive are those of the source. No cut-off for these calls is given here.

Assays:
[1] = target: T1, Androgen receptor (Homo sapiens, UniProt P10275)
T1 sequence (P10275 whole entry): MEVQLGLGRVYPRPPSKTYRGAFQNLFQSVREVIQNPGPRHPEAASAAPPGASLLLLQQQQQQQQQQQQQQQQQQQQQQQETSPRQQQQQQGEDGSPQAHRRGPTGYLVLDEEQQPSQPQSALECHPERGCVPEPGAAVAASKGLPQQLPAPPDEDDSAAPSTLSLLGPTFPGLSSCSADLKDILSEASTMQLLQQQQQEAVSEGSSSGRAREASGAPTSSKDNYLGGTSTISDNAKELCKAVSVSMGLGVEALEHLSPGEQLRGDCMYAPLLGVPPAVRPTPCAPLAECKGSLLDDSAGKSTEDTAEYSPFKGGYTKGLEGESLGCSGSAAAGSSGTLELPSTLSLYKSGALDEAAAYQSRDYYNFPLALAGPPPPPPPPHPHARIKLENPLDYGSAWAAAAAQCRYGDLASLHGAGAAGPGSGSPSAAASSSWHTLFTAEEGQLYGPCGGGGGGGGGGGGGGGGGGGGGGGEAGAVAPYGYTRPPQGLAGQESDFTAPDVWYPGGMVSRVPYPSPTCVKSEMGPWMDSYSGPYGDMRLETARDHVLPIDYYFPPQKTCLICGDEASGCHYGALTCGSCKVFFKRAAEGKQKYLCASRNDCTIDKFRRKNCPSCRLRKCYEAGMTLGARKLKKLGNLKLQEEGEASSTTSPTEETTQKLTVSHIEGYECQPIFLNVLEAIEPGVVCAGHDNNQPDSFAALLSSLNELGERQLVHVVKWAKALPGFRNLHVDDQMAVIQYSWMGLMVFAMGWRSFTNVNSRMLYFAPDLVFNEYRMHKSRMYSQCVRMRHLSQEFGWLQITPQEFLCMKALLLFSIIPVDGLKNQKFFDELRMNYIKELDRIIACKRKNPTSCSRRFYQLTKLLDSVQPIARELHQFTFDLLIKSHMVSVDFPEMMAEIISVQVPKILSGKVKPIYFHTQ

[2] = Half life in Sprague-Dawley rat at 1 mg/kg, iv measured upto 24 hrs by LC-MS/MS analysis; format: ADME, organism-based; conditions: in vivo
[3] = AUC (0 to t) in Sprague-Dawley rat at 1 mg/kg, iv measured upto 24 hrs by LC-MS/MS analysis; format: ADME, organism-based; set-up: dose 1 mg/kg, time < 24 hrs, route iv; conditions: in vivo
[4] = Volume of distribution at steady state in Sprague-Dawley rat at 1 mg/kg, iv measured upto 24 hrs by LC-MS/MS analysis; format: ADME, organism-based; conditions: in vivo, read-out: Vdss
[5] = Clearance in Sprague-Dawley rat at 1 mg/kg, iv measured upto 24 hrs by LC-MS/MS analysis; format: ADME, organism-based; conditions: in vivo
[6] = Half life in Sprague-Dawley rat at 3 mg/kg, po measured upto 24 hrs by LC-MS/MS analysis; format: ADME, organism-based; conditions: in vivo
[7] = Cmax in Sprague-Dawley rat at 3 mg/kg, po measured upto 24 hrs by LC-MS/MS analysis; format: ADME, organism-based; set-up: dose 3 mg/kg, time < 24 hrs, route po; conditions: in vivo
[8] = AUC (0 to t) in Sprague-Dawley rat at 3 mg/kg, po measured upto 24 hrs by LC-MS/MS analysis; format: ADME, organism-based; set-up: dose 3 mg/kg, time < 24 hrs, route po; conditions: in vivo
[9] = Oral bioavailability in Sprague-Dawley rat at 3 mg/kg measured upto 24 hrs by LC-MS/MS analysis; format: ADME, organism-based; conditions: in vivo
[10] = test system: VCaP; assay: Growth inhibition in human VCaP cells
[11] = target: Protein cereblon (Homo sapiens, UniProt Q96SW2); assay: Binding affinity to CRBN (unknown origin) assessed as inhibition constant
[12] = target: Protein cereblon/Androgen receptor (Homo sapiens, UniProt P10275+Q96SW2); assay: PROTAC activity at AR/CRBN in AR-positive human VCaP cells assessed as induction of androgen receptor degradation measured at 24 hrs; format: cell-based
[13] = target: Protein cereblon/Androgen receptor (Homo sapiens, UniProt P10275+Q96SW2, T878A); assay: PROTAC activity at AR T878A mutant/CRBN in human LNCaP cells assessed as induction of androgen receptor degradation measured at 24 hrs by Western blot analysis; format: cell-based
[14] = Half life in Sprague-Dawley rat at 2 mg/kg, iv measured upto 24 hrs by LC-MS/MS analysis; conditions: in vivo
[15] = Volume of distribution at steady state in Sprague-Dawley rat at 2 mg/kg, iv measured upto 24 hrs by LC-MS/MS analysis; conditions: in vivo
[16] = Clearance in Sprague-Dawley rat at 2 mg/kg, iv measured upto 24 hrs by LC-MS/MS analysis; conditions: in vivo
[17] = Half life in Sprague-Dawley rat at 5 mg/kg, po measured upto 24 hrs by LC-MS/MS analysis; conditions: in vivo
[18] = in vivo; conditions: Sprague-Dawley, rat, iv, 2 mg/kg
[19] = in vivo; conditions: Sprague-Dawley, rat, po, 5 mg/kg
[20] = in vivo; conditions: Sprague-Dawley, rat, po, 5 mg/kg; remark: listed apart in the source
[21] = in vivo; conditions: Sprague-Dawley, rat, po, 5 mg/kg; remark: listed apart in the source
[22] = test system: VCaP; assay: Antitumor activity against human VCaP cells xenografted in CB17-SCID mouse assessed as tumor growth inhibition at 10 mg/kg, po administered for 21 days; format: functional; conditions: 504 h, time 21 day, read-out: TGI
[23] = test system: LNCaP; assay: Growth inhibition in human LNCaP cells assessed as reduction in cell viability
[24] = test system: VCaP; assay: Downregulation of PCLAF protein expression in human VCaP cells at 10 uM measured for 24 hrs by proteomics analysis; format: functional, cell-based
[25] = test system: VCaP; assay: Downregulation of PLOD2 protein expression in human VCaP cells at 10 uM measured for 24 hrs by proteomics analysis; format: functional, cell-based
[26] = test system: VCaP; assay: Downregulation of HAUS8 protein expression in human VCaP cells at 10 uM measured for 24 hrs by proteomics analysis; format: functional, cell-based

Chain of Protein cereblon (Q96SW2 whole entry): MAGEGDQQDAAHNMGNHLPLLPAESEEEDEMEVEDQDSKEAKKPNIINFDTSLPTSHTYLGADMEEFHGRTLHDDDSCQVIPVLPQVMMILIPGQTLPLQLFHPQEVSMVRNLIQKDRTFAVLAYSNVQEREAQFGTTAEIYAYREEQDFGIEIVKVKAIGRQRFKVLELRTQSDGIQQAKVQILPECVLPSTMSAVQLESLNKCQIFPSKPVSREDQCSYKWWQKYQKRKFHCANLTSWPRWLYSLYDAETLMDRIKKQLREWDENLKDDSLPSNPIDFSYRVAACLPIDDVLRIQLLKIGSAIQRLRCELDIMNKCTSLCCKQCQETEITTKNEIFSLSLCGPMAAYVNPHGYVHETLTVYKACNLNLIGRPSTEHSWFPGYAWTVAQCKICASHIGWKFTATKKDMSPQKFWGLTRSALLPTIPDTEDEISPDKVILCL
Chain of Protein cereblon/Androgen receptor (Homo sapiens, UniProt P10275+Q96SW2) (Q96SW2 whole entry, one chain of several): as the sequence (Q96SW2 whole entry) above

Row | SMILES | IC50 [10] | DC50 ([12]; read-out: DC50) | DC50 [13] | half-life at 24 h [14] | Vd at 24 h [15] | clearance at 24 h [16] | half-life at 24 h [17] | AUC(0-t) at 24 h [18] | Cmax at 24 h [19] | AUC(0-t) at 24 h [20] | bioavailability at 24 h [21] | also measured
1 | CN(c1ccc(C#N)c(Cl)c1)[C@H]1CC[C@H](NC(=O)c2ccc(N3CCN(C4CN(c5ccc6c(c5)C(=O)N(C5CCC(=O)NC5=O)C6=O)C4)CC3)cc2)CC1 (stereo partly drawn) |  |  |  |  |  |  |  |  |  |  |  | IC50 [1]: 0.015 µM; half-life [2]: 5.5 h; AUC(0-t) at 24 h [3]: 1300 ng·h/mL; Vd [4]: 5.3 L/kg; clearance [5]: 12.5 mL/min/kg; half-life [6]: 6.9 h; Cmax [7]: 57 ng/mL; AUC(0-t) at 24 h [8]: 535 ng·h/mL; bioavailability [9]: 13%
2 | C[C@H]1CC2(CCN(c3cnc(C(=O)N4CCC(CN5Cc6cc7c(cc6C5)C(=O)N(C5CCC(=O)NC5=O)C7=O)CC4)cn3)CC2)CN1c1ccc(C#N)c(Cl)c1 (stereo partly drawn) | 0.01 µM |  |  |  |  |  |  |  |  |  |  | half-life [2]: 1.4 h; AUC(0-t) at 24 h [3]: 495 ng·h/mL; Vd [4]: 2.3 L/kg; clearance [5]: 33.3 mL/min/kg; half-life [6]: 1.2 h; Cmax [7]: 55 ng/mL; AUC(0-t) at 24 h [8]: 235 ng·h/mL; bioavailability [9]: 15%
3 | CN1CCc2cc3c(cc2C1)C(=O)N(C1CCC(=O)NC1=O)C3=O (stereo not drawn) |  |  |  |  |  |  |  |  |  |  |  | Ki [11]: 6 µM
4 | C[C@H]1CC2(CCN(c3ccc(C(=O)N4CCC(F)(CN5Cc6cc7c(cc6C5)C(=O)N(C5CCC(=O)NC5=O)C7=O)CC4)cc3)CC2)CN1c1ccc(C#N)c(Cl)c1 (stereo partly drawn) | 0.018 µM | 0.0009 µM | 0.0037 µM | 7.9 h | 4.2 L/kg | 7.83 mL/min/kg | 5.2 h | 4000 ng·h/mL | 216 ng/mL | 1820 ng·h/mL | 18% | 
5 | N#Cc1ccc(O[C@H]2CC[C@H](NC(=O)c3ccc(N4CCC(CN5CCN(c6cc7c(cc6F)C(=O)N(C6CCC(=O)NC6=O)C7=O)CC5)CC4)nn3)CC2)cc1Cl (stereo partly drawn) [BAVDEGALUTAMIDE] | 0.0162 µM |  |  |  |  |  |  |  |  |  |  | inhibition in vivo at 10 mg/kg [22]: 47%; half-life [2]: 12 h; AUC(0-t) at 24 h [3]: 2270 ng·h/mL; Vd [4]: 4.6 L/kg; clearance [5]: 6 mL/min/kg; half-life [6]: 27.1 h; Cmax [7]: 280 ng/mL; AUC(0-t) at 24 h [8]: 3600 ng·h/mL; bioavailability [9]: 52%; IC50 [23]: 0.0185 µM
6 | C[C@H]1CC2(CCN(c3ccc(C(=O)N4CC(CN5Cc6cc7c(cc6C5)C(=O)N(C5CCC(=O)NC5=O)C7=O)C4)cc3)CC2)CN1c1ccc(C#N)c(Cl)c1 (stereo partly drawn) | 0.0257 µM |  |  | 1.4 h | 1.8 L/kg | 25 mL/min/kg | 1.2 h | 1380 ng·h/mL | 78 ng/mL | 310 ng·h/mL | 9% | 
7 | CN1CCN(c2cc3c(cc2F)C(=O)N(C2CCC(=O)NC2=O)C3=O)CC1 (stereo not drawn) |  |  |  |  |  |  |  |  |  |  |  | Ki [11]: 4.9 µM
8 | C[C@H]1CC2(CCN(c3ccc(C(=O)N4CC(N5Cc6cc7c(cc6C5)C(=O)N(C5CCC(=O)NC5=O)C7=O)C4)cc3)CC2)CN1c1ccc(C#N)c(Cl)c1 (stereo partly drawn) | 0.085 µM | 0.0007 µM | 0.005 µM | 3.2 h | 2.7 L/kg | 14.5 mL/min/kg | 1.89 h | 2370 ng·h/mL | 94 ng/mL | 423 ng·h/mL | 7.2% | 
9 | CNC(=O)c1ccc(N2C(=S)N(c3ccc(C#N)c(C(F)(F)F)c3)C(=O)C2(C)C)cc1F [ENZALUTAMIDE] |  |  |  |  |  |  |  |  |  |  |  | IC50 [23]: 0.213 µM
10 | C[C@H]1CC2(CCN(c3ccc(C(=O)N4CCC(N5Cc6cc7c(cc6C5)C(=O)N(C5CCC(=O)NC5=O)C7=O)CC4)cc3)CC2)CN1c1ccc(C#N)c(Cl)c1 (stereo partly drawn) | 0.0165 µM | 0.0004 µM | 0.0008 µM | 5.5 h | 6.1 L/kg | 15.3 mL/min/kg | 5.5 h | 2100 ng·h/mL | 410 ng/mL | 4280 ng·h/mL | 81% | 
11 | C[C@H]1CC2(CCN(c3ccc(C(=O)N4CCC(C)(CN5Cc6cc7c(cc6C5)C(=O)N(C5CCC(=O)NC5=O)C7=O)CC4)cc3)CC2)CN1c1ccc(C#N)c(Cl)c1 (stereo partly drawn) | 0.042 µM | 0.0038 µM | 0.0089 µM | 6.1 h | 3.1 L/kg | 6.33 mL/min/kg | 8.4 h | 5090 ng·h/mL | 539 ng/mL | 5730 ng·h/mL | 45% | 
12 | C[C@H]1CC2(CCN(c3ccc(C(=O)N4CCN(C)CC4)cc3)CC2)CN1c1ccc(C#N)c(Cl)c1 |  |  |  |  |  |  |  |  |  |  |  | DC50 [12]: Not Active; Activity [24]: inactive; Activity [25]: inactive; Activity [26]: inactive
13 | CN1CCc2cc3c(cc2CC1)C(=O)N(C1CCC(=O)NC1=O)C3=O (stereo not drawn) |  |  |  |  |  |  |  |  |  |  |  | Ki [11]: 7.3 µM
14 | COC1(CN2Cc3cc4c(cc3C2)C(=O)N(C2CCC(=O)NC2=O)C4=O)CCN(C(=O)c2ccc(N3CCC4(CC3)C[C@H](C)N(c3ccc(C#N)c(Cl)c3)C4)cc2)CC1 (stereo partly drawn) | 0.0049 µM | 0.0003 µM | 0.001 µM | 4.9 h | 4.1 L/kg | 13.8 mL/min/kg | 5.6 h | 2390 ng·h/mL | 179 ng/mL | 1320 ng·h/mL | 22% | 
15 | O=C1CCC(N2C(=O)c3ccc(N4CCC4)cc3C2=O)C(=O)N1 (stereo not drawn) |  |  |  |  |  |  |  |  |  |  |  | Ki [11]: 0.5 µM
16 | C[C@H]1CC2(CCN(c3ccc(C(=O)N4CCC(CN5Cc6cc7c(cc6C5)C(=O)N(C5CCC(=O)NC5=O)C7=O)CC4)nn3)CC2)CN1c1ccc(C#N)c(Cl)c1 (stereo partly drawn) | 0.02 µM | 0.0027 µM | 0.0005 µM |  |  |  | 1.4 h |  |  |  |  | half-life [2]: 2 h; AUC(0-t) at 24 h [3]: 1010 ng·h/mL; Vd [4]: 2.2 L/kg; clearance [5]: 32.3 mL/min/kg; Cmax [7]: 247 ng/mL; AUC(0-t) at 24 h [8]: 1100 ng·h/mL; bioavailability [9]: 36%
